The text below walks through data of patent US20230248833A1, “COMPOUND HAVING BTK KINASE DEGRADING ACTIVITY, AND PREPARATION METHOD AND PHARMACEUTICAL USE THEREFOR” (SICHUAN HAISCO PHARMACEUTICAL CO., LTD., priority 2020, published 2023).

Data set [1] has as its target T1, hERG potassium ion channel (Homo sapiens, UniProt Q12809).
T1 construct: expressed in transfected cells
The data set is described as follows: Effect on hERG potassium ion channel, manual patch-clamp in CHO cells. Type of data set: cell-based. The note with it: CHO cells stably expressing hERG, whole cell patch-clamp, room temperature; read-out: IC50 value of inhibitory effect on hERG potassium channel current. An excerpt:
Experimental platform: electrophysiological manual patch-clamp system
Cell line: Chinese hamster ovary (CHO) cells stably expressing hERG potassium ion channel
Experimental method: In CHO (Chinese Hamster Ovary) cells stably expressing hERG potassium channel, whole cell patch-clamp technique was used to recorded hERG potassium channel current at room temperature. The glass microelectrode is made of a glass electrode blank (BF150-86-10, Sutter) by a puller. The tip resistance after filling the liquid in the electrode is about 2-5 MQ. The glass microelectrode can be connected to the patch-clamp amplifier by inserting the glass microelectrode into an amplifier probe. The clamping voltage and data recording are controlled and recorded by the pClamp 10 software through a computer. The sampling frequency is 10 kHz, and the filtering frequency is 2 kHz. […]
Data analysis processing was carried out by using pClamp 10, GraphPad Prism 5 and Excel software. The inhibition degree of hERG potassium current (peak value of hERG tail current induced at −50 mV) at different compound concentrations was calculated by the following formula: […]
Compound IC50 was calculated using GraphPad Prism 5 software by fitting according to the following equation: […]
A general note: The hERG channel carries a current that helps repolarise heart muscle cells.

The subject of a further data set is Mino cells. Briefly: Inhibition of cell proliferation, Mino cells (Cell Viability Assay, 72 h). Type of data set: cell-based, human. Conditions: Homo sapiens, MINO, 72 h. The protocol:
(§1) SU-DHL-4, Mino, and SU-DHL-6 cells, in the culture medium of RPMI1640+10% FBS, were cultured in an incubator at 37° C. under 5% CO2. Cells were plated in a 96-well plate. Specifically, SU-DHL-4 cells were at 20000/well, Mino and SU-DHL-6 cells were at 5000/well, with 90 μL/well. 10 μL of the compounds at different concentrations were added to each well. There were 3 replicate wells for each concentration, and the last column, added with DMSO, was used as a vehicle control group. The cultures were continued for 72 hours at 37° C. under 5% CO2. After 72 hours, 100 μL of detection reagent (Cell Viability Assay, Promega, G7573) was added to each well, and the cultures were uniformly mixed for 2 minutes, and incubated at room temperature for 10 minutes. The […] signal value was measured with a microplate reader (PHERAstar FSX). The IC50 value of the compound on cell proliferation inhibition was calculated using origin9.2 software, and the inhibition rate at the highest concentration of the compound (Max inhi.%) was calculated according to formula (1).
(§2) Max inhi.%=(1−T72administration/T72vehicle)×100 Formula (1).

A short description of data set [2]: Pharmacokinetic experiment in rats. The note with it: male, SD, rat, po, plasma, single dose. The class given is in vivo. The protocol: Experimental objective: In this experiment, a single dose of each test compound was administered to SD rats intravenously and intragastrically, the concentrations of the test compound in plasma of rats were measured, and the pharmacokinetic characteristics and bioavailability of the test compound in rats were evaluated.
Experimental animals: Male SD rats, about 200 g, 6-8 weeks old, 6 rats/compound. Rats were purchased from Hunan SJA Laboratory Animal Co., Ltd, with the laboratory animal production license number of SCXK (Xiang) 2019-004.
Experimental method: On the day of the experiment, 6 SD rats were randomly grouped according to their body weight. The animals were fasted with water available for 12 to 14 hours one day before the administration of a test compound, and were fed 4 hours after the administration.
Before and after the administration, […] of blood was taken from the orbit of the rats under isoflurane anesthesia, and placed in an EDTAK2 centrifuge tube. Centrifugation was carried out at 5000 rpm at 4° C. for 10 min, and the plasma was collected.
Time points for sample collection in G1&G2 groups comprise
Before analysis and detection, all samples were stored at −80° C. The samples were detected by HPLC-MS/MS.

A further data set deals with SU-DHL-6 cells. The data set is described as follows: Inhibition of cell proliferation, SU-DHL-6 cells (Cell Viability Assay, 72 h). Conditions: Homo sapiens, SU-DHL-6, 72 h. Type of data set: cell-based, human. The protocol:
as §1, §2

Bounds are passed on as bounds.

T1 sequence (Q12809 whole entry): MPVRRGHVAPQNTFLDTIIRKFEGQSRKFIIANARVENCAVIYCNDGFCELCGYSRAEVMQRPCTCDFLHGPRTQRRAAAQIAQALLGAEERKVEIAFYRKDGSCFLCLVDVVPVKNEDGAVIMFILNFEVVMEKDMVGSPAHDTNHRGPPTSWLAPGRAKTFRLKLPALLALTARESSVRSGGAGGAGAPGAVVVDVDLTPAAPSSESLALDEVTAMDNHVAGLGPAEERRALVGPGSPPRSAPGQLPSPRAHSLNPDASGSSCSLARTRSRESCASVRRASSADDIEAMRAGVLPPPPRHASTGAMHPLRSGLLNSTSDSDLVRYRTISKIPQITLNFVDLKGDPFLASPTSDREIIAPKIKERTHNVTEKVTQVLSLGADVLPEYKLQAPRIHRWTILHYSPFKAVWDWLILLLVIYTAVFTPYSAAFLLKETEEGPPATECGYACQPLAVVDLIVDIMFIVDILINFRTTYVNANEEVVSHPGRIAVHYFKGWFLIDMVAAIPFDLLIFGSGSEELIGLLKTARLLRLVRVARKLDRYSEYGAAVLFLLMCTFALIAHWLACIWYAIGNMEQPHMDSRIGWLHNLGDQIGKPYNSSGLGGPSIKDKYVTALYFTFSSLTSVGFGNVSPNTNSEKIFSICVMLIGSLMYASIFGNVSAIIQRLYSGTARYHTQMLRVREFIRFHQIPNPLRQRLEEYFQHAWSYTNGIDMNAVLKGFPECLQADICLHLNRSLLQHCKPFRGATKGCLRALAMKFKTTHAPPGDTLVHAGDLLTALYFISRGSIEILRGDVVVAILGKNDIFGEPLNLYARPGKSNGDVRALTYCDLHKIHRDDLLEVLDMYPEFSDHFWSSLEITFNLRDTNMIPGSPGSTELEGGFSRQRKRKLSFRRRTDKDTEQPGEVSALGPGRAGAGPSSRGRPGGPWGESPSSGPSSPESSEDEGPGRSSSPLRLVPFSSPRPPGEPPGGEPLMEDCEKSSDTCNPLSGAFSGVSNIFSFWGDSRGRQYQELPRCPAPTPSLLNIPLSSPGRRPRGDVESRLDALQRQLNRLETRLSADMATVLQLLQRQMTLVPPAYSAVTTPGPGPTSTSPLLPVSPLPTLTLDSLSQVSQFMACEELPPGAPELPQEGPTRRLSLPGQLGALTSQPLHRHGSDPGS

Turning to `Nc1ncnc2c1c(-c1ccc(Oc3ccccc3)cc1)nn2[C@H]1CCN(C2CN(CC3(F)CN(c4cc5c(cc4F)C(=O)N(C4CCC(=O)NC4=O)C5=O)C3)C2)C[C@H]1F` (stereo partly drawn) [Compound 113, 5-(3-((3-((3R,4S)-4-(4-amino-3-(4-phenoxyphenyl)-1H-pyrazolo[3,4-d]pyrimidin-1-yl)-3-fluoropiperidin-1-yl)azetidin-1-yl)methyl)-3-fluoroazetidin-1-yl)-2-(2,6-dioxopiperidin-3-yl)-6-fluoroisoindoline-1,3-dione], the figures for the IC50 (in data set [1]; in the data set on Mino cells; in the data set on SU-DHL-6 cells) were > 40000 nM, 61 nM and 100 nM, respectively. The compound also displayed an AUC(0-t) in data set [2] (i.g. (20 mg/kg)) of 3820 ± 811 ng·h/mL.
The matching figures for `Nc1ncnc2c1c(-c1ccc(Oc3ccccc3)cc1)nn2C1CCN(C2CN(CC3(F)CN(c4cc5c(cc4F)C(=O)N(C4CCC(=O)NC4=O)C5=O)C3)C2)CC1` (centres unmarked) [Compound 115, 5-(3-((3-(4-(4-amino-3-(4-phenoxyphenyl)-1H-pyrazolo[3,4-d]pyrimidin-1-yl)piperidin-1-yl)azetidin-1-yl)methyl)-3-fluoroazetidin-1-yl)-2-(2,6-dioxopiperidin-3-yl)-6-fluoroisoindoline-1,3-dione]: > 40000 nM, 166 nM, 133 nM and 5820 ± 2260 ng·h/mL.
For `Nc1ncnc2c1c(-c1ccc(Oc3ccccc3)cc1)nn2C1CCN(C2CN(CC3(F)CCN(c4ccc5c(c4)C(=O)N(C4CCC(=O)NC4=O)C5=O)CC3)C2)CC1` (centres unmarked) [Compound 118, 5-(4-((3-(4-(4-amino-3-(4-phenoxyphenyl)-1H-pyrazolo[3,4-d]pyrimidin-1-yl)piperidin-1-yl)azetidin-1-yl)methyl)-4-fluoropiperidin-1-yl)-2-(2,6-dioxopiperidin-3-yl)isoindoline-1,3-dione], the IC50 in the data set on Mino cells was determined as 52 nM; in the data set with SU-DHL-6 cells, 50 nM. Also, in data set [2] (i.g. (20 mg/kg)), the AUC(0-t) was found to be 2080 ± 985 ng·h/mL.
`Nc1ncnc2c1c(-c1ccc(Oc3ccccc3)cc1)nn2C1CCN(C2CN(CC3CCN(c4ccc5c(c4)C(=O)N(C4CCC(=O)NC4=O)C5=O)CC3)C2)CC1` (centres unmarked) [Trifluoroacetate of compound 98, 5-(4-((3-(4-(4-amino-3-(4-phenoxyphenyl)-1H-pyrazolo[3,4-d]pyrimidin-1-yl)piperidin-1-yl)azetidin-1-yl)methyl)piperidin-1-yl)-2-(2,6-dioxopiperidin-3-yl)isoindoline-1,3-dione]: the IC50 amounted to 20 nM in the data set on Mino cells and 12 nM in the data set on SU-DHL-6 cells. In addition, the AUC(0-t) in data set [2] (i.g. (20 mg/kg)) was found to be 347 ± 55 ng·h/mL.
Turning to `Nc1ncnc2c1c(-c1ccc(Oc3ccccc3)cc1)nn2C1CCN(C2CN(CC3CCN(c4ccc5c(c4)C(=O)N(C4CCC(=O)NC4=O)C5=O)C3)C2)CC1` (centres unmarked) [Trifluoroacetate of compound 99, 5-(3-((3-(4-(4-amino-3-(4-phenoxyphenyl)-1H-pyrazolo[3,4-d]pyrimidin-1-yl)piperidin-1-yl)azetidin-1-yl)methyl)pyrrolidine-1-yl)-2-(2,6-dioxopiperidin-3-yl)isoindoline-1,3-dione], the results for the IC50 in the data set with Mino cells and with SU-DHL-6 cells were 21 nM and 24 nM, respectively. For the same compound, the AUC(0-t) in data set [2] (i.g. (5 mg/kg)) is 504 ± 131 ng·h/mL.

Broadly, the IC50 is the concentration needed to halve the response being measured. The AUC(0-t) is exposure summed from dosing to a finite time, without extrapolation to infinity. Low readings indicate low exposure, high ones high exposure.
